Values joined by “and” are separate entries in the source; they are usually repeats but may differ in a detail not shown here. Equal values may be shown once.
How the values were obtained:
Wnt signaling = assay: CellSensor LEF/TCF-bla SW480 cell-based assay (Wnt signaling inhibition); design: species or system human; settings: Homo sapiens; LEF/TCF-bla SW480 cells, 20 hours
Experimental: To determine the specificity of compounds on Wnt/[…]-catenin pathway inhibition, CellSensor LEF/TCF-bla SW480 cell-based assay (Invitrogen, Carlsbad, Calif.) was used according to the supplier's instructions, but modified for a 96 well format. Cells were plated at 25,000 cells/well in assay medium in 96-well black plates with clear bottom (Corning) the day prior to compound treatment.

Normal PBMC = assay: Cell viability assay (MTT) with normal peripheral blood mononuclear cells; assay type: cell-based, human; settings: Homo sapiens; Normal PBMC from five normal individuals; 48 hours; mean
SW480 = assay: Cytotoxicity of EA in tumor cell line SW480; assay type: cell-based; settings: Homo sapiens, mean of at least two experiments
B16 = assay: Cytotoxicity of EA in tumor cell line B16; assay type: cell-based; settings: Mus musculus, mean of at least two experiments
Wnt/β-catenin signaling [1] = assay: TOPflash reporter assay in transfected HEK293 cells; assay type: cell-based, human
Wnt/β-catenin signaling [2] = assay: TOPflash reporter assay in SW480 cells; assay type: cell-based, human; settings: 24 hours
Experimental: FIG. 7. EA destabilizes the LEF-1/β-catenin complex. (A) SW480 cells were treated with increasing amounts of EA for 16 hours. Cells were lysed, and IP was completed with anti-β-catenin monoclonal antibody. The immune complexes were analyzed by immunoblotting with anti-LEF-1, anti-α-catenin and anti-β-catenin antibodies. (B) EA inhibits Wnt/β-catenin signaling in SW480 cells. SW480 cells were transfected with TOPflash reporter and control plasmid pCMXβgal. After transfection for 24 hours, cells were treated with increasing concentrations of EA for another 24 hours as indicated. Cells were then harvested and luciferase values were determined. The results are expressed as relative luciferase activity (%) normalized to a β-galactosidase control. For screening of the drug library, HEK293 cells were grown for at least 24 hours in 10 cm plates prior to transfection. At 50% confluence, cells were transfected with 5 μg of TOPflash reporter, 1 μg expression vector for Dvl, 1 μg of control plasmid pCMXβgal and carrier DNA pcDNA3 plasmid for a total of 10 μg/plate. After transfection for 24 hours, cells were harvested and dispersed in 96-well microtiter plates. […] Then luciferase values were determined. In the Results section, data are expressed as fold stimulation of luciferase activity compared to the basal level. […]

LEF-1 = target: T1, LEF-1 (Homo sapiens, UniProt Q9UJU2); assay: Immunoprecipitation and immunoblotting with anti-EA antibody: LEF-1; assay type: binding
T1 construct: endogenous in cells; host or cells: primary CLL cells from patients; SW480 cells
Experimental: (§1) FIG. 6. EA binds to LEF-1 in primary CLL and SW480 cells. (A) lysates from CLL cells exposed to 10 μM EA for 8 hours or 24 hours were immunoprecipitated with anti-LEF-1 antibody. The immune complexes were analyzed by immunoblotting with anti-LEF-1 and anti-EA antibodies. (B) SW480 cells were treated with indicated amounts of EA for 16 hours. Cell lysates were immunoprecipitated with anti-β-catenin antibody (Santa Cruz Biotechnology, Santa Cruz, Calif.). The immune complexes were analyzed by immunoblotting with anti-EA and anti-β-catenin antibodies. (C) SW480 cells were exposed to 50 μM of EA for 16 hours and cell lysates were immunoprecipitated with anti-β-catenin antibody. The proteins in the immunoprecipitates were resolved by SDS-PAGE, transferred, and probed with indicated antibodies.
(§2) A conjugate of EA with Keyhole Limpet Hemocyanin (KLH, Sigma) was prepared by thiolation of KLH with N-succinimidyl S-acetylthioacetate (SATA), followed by allowing the SATA-KLH conjugate to form a Michael adduct with EA, as described in Hermanson (1996). Immunization of rabbits was performed by three 1 mL subcutaneous injections of approximately 0.4 mg EA-KLH conjugates. Complete Freund's adjuvant was used for the first injection. The second and third injections were performed 3 and 6 weeks after the first, using incomplete adjuvant. […]

β-catenin = target: T2, β-catenin (Homo sapiens, UniProt P35222); assay: Immunoprecipitation and immunoblotting with anti-EA antibody: β-catenin; assay type: binding
T2 construct: endogenous in cells
Experimental: as §1, §2

[3] = continuous i.v. infusion, cited from earlier work

T1 sequence (Q9UJU2 whole entry): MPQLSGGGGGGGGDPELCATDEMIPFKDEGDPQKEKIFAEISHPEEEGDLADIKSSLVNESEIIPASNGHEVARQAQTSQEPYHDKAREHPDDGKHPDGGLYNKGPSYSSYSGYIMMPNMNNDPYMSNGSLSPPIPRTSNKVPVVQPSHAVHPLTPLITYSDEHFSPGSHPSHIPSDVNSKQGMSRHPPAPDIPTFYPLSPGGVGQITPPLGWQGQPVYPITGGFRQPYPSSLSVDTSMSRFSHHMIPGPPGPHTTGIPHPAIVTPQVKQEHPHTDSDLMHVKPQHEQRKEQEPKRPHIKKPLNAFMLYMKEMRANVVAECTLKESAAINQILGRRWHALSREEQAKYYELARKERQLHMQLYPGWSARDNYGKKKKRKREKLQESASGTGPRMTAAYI
T2 sequence (P35222 whole entry): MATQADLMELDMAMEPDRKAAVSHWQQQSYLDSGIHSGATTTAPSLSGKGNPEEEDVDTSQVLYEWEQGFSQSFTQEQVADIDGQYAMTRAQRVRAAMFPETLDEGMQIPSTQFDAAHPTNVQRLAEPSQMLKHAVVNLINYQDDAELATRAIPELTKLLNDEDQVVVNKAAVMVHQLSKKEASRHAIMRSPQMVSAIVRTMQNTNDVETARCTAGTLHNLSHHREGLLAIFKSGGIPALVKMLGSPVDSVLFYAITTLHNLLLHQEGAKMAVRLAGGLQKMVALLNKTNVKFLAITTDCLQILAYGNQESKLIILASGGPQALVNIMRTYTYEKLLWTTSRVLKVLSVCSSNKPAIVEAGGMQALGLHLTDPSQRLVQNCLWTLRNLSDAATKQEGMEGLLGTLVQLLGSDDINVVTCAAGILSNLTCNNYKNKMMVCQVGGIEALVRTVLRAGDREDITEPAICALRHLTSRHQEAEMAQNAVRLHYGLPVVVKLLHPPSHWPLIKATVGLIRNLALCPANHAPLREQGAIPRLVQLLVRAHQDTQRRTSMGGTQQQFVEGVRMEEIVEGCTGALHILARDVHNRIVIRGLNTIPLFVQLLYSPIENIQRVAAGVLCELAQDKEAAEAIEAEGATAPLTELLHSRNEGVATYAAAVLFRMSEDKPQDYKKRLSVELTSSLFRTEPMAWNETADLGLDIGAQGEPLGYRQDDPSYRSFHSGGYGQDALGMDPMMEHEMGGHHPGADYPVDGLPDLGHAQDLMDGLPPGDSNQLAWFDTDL

Structure (SMILES): C=C(CC)C(=O)c1ccc(OCC(=O)O)c(Cl)c1Cl [Compound 1, Ethacrynic acid]
- IC50 (Wnt signaling): 32.7 µM
- IC50 (Normal PBMC): 34.8 µM
- IC50 (SW480): 68 µM
- IC50 (B16): 201 µM
- effect on Wnt1/LRP6 or Wnt3/LRP6, Dvl, and β-catenin-induced transcription (Wnt/β-catenin signaling [1]; 50 μM EA, 24 hours): reduced
- inhibition of TOPflash activity (drug library screen) (Wnt/β-catenin signaling [1]; Dvl-activated, generally at 10 μM and 50 μM, overnight): ≥ 30%
- concentrations with dose-dependent inhibition of TOPflash activity (Wnt/β-catenin signaling [2]): ≥ 60 µM
- reaction of immunoprecipitated LEF-1 with anti-EA antibody (LEF-1; CLL lysates, EA 10 μM, 8 hours and 24 hours): reacted strongly with the anti-EA antibody
- staining of the LEF-1 band with anti-EA antibody (LEF-1; SW480 cells, 50 μM EA, 16 hours, anti-β-catenin immunoprecipitate): stained positive with the anti-EA antibody only in the drug treated samples
- binding to β-catenin (β-catenin; CLL extracts, data not shown): did not bind detectably
- detection of precipitated β-catenin by anti-EA antibody (β-catenin; SW480 cells, 16 hours): could not be detected by anti-EA antibody
- time for which plasma concentrations are sustained ([3]; above 1 μg/ml): up to 3 hours
- sustained plasma concentrations ([3]; listed as EA): greater than 1 μg/ml and > 3.3 μM
